Test: xn = mol fraction of the nth substance listed
Conditions: 100 kPa

CCCCCCCCO + COC(=O)OC
viscosity [mPa·s]
Conditions	293.15 K	298.15 K	303.15 K	308.15 K	313.15 K	318.15 K	323.15 K
x2 = 0.1	–	–	4.529	3.905	3.388	2.951	2.59
x2 = 0.1003	6.22	5.35	4.58	3.94	3.41	2.97	2.61
x2 = 0.1999	–	–	3.34	2.917	2.56	2.263	–
x2 = 0.2001	4.4	3.86	3.45	2.93	2.61	2.24	1.99
x2 = 0.2997	3.28	2.87	2.52	2.22	1.97	1.76	1.58
x2 = 0.3	–	–	2.516	2.22	1.971	1.763	–
x2 = 0.3999	–	–	1.931	1.73	1.547	1.395	–
x2 = 0.4005	2.44	2.14	1.9	1.69	1.5	1.35	1.22
x2 = 0.5	–	–	1.505	1.358	1.229	1.119	–
x2 = 0.5004	1.83	1.63	1.46	1.31	1.18	1.08	0.98
x2 = 0.5996	1.39	1.25	1.13	1.03	0.94	0.86	0.8
x2 = 0.6	–	–	1.183	1.079	0.984	0.903	–
x2 = 0.7	–	–	0.959	0.88	0.814	0.754	–
x2 = 0.7001	1.08	0.98	0.9	0.83	0.77	0.71	0.66
x2 = 0.7999	–	–	0.765	0.711	0.662	0.617	–
x2 = 0.8001	0.85	0.78	0.72	0.67	0.62	0.58	0.54
x2 = 0.9	–	–	0.633	0.591	0.554	0.523	–
x2 = 0.9005	0.66	0.61	0.58	0.54	0.51	0.48	0.45
